Measurements published in ChEMBL document CHEMBL1139199 (Bioorg Med Chem Lett, 2007).

Tests used:
[1] = Plasma clearance in rat at 1 mg/kg, iv or 2 mg/kg, po; assay type: ADME, organism-based
[2] = Oral bioavailability in rat at 2 mg/kg, po; assay type: ADME, organism-based; details: in vivo
Dipeptidyl peptidase 9 = Dipeptidyl peptidase 9 (Homo sapiens, UniProt Q86TI2); assay: Inhibition of human DPP9 after 15 mins by continuous fluorescent assay
[3] = biological target: Voltage-gated inwardly rectifying potassium channel KCNH2 (Homo sapiens, UniProt Q12809); assay: Inhibition of cardiac hERG
[4] = Plasma clearance in dog at 1 mg/kg, iv or 2 mg/kg, po; assay type: ADME, organism-based, Canis lupus familiaris
[5] = Oral bioavailability in dog at 2 mg/kg, po; assay type: ADME, organism-based, Canis lupus familiaris; details: in vivo
Mus musculus = organism: Mus musculus; assay: Reduction of blood glucose excursion in mouse by OGTT; assay type: functional, organism-based
Dipeptidyl peptidase 8 = Dipeptidyl peptidase 8 (Homo sapiens, UniProt Q6V1X1); assay: Inhibition of human DPP8 after 15 mins by continuous fluorescent assay
Dipeptidyl peptidase 2 = Dipeptidyl peptidase 2 (Homo sapiens, UniProt Q9UHL4); assay: Inhibition of human recombinant QPP expressed in SF9 cells

Sequence of Voltage-gated inwardly rectifying potassium channel KCNH2 (Q12809 whole entry): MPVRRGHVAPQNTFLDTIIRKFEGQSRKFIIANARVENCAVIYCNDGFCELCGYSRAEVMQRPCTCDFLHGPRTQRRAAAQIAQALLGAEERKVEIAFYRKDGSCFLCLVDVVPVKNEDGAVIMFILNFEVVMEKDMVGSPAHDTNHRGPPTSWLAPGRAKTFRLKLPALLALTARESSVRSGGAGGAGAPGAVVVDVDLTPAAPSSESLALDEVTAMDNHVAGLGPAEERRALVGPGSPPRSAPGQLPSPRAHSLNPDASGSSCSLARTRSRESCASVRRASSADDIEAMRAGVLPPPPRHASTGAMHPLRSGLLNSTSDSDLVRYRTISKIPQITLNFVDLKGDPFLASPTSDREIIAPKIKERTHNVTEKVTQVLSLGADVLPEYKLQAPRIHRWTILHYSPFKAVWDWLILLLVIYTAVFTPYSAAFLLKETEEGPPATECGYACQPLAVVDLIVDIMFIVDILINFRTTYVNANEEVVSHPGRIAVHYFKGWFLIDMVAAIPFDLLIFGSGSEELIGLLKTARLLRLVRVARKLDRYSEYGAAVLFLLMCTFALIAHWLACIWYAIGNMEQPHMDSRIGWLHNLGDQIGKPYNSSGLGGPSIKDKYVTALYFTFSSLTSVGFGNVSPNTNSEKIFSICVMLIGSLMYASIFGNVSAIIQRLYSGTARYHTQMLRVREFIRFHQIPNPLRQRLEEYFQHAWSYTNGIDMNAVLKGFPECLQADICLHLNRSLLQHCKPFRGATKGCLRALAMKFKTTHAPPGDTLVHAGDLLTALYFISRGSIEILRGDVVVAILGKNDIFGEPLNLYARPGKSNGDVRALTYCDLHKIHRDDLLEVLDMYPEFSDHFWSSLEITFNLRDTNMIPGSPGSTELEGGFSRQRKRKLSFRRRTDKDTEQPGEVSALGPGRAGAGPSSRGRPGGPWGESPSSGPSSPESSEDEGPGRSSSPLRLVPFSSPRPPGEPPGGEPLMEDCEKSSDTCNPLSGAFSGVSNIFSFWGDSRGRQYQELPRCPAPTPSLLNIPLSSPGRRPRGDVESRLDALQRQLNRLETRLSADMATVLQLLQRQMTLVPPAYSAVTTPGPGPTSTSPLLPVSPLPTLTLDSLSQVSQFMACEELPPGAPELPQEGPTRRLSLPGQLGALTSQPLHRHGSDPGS
Sequence of Dipeptidyl peptidase 8 (Q6V1X1 whole entry): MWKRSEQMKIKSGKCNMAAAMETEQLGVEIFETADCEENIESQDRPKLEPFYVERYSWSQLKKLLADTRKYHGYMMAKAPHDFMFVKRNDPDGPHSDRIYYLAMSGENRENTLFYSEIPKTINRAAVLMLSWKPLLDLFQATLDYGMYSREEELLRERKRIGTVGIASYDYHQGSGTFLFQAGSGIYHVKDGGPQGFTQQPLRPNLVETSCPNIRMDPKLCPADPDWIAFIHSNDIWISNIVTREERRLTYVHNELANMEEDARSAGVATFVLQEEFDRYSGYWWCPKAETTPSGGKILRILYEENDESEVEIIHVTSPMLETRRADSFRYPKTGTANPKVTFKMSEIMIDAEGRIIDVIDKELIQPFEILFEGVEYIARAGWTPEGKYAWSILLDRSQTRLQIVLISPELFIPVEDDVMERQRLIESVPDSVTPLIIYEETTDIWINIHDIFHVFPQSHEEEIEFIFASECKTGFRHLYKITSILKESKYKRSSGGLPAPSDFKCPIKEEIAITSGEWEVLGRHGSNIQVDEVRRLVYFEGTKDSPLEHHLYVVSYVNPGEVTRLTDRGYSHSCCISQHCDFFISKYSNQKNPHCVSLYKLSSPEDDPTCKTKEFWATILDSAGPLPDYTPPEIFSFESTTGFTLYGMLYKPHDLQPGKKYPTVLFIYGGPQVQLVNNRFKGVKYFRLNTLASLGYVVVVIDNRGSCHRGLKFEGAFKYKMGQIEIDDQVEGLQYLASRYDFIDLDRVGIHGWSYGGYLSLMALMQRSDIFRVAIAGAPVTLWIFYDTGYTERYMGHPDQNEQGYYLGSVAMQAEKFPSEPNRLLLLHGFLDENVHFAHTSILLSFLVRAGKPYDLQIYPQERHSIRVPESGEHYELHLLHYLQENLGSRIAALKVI
Sequence of Dipeptidyl peptidase 9 (Q86TI2 whole entry): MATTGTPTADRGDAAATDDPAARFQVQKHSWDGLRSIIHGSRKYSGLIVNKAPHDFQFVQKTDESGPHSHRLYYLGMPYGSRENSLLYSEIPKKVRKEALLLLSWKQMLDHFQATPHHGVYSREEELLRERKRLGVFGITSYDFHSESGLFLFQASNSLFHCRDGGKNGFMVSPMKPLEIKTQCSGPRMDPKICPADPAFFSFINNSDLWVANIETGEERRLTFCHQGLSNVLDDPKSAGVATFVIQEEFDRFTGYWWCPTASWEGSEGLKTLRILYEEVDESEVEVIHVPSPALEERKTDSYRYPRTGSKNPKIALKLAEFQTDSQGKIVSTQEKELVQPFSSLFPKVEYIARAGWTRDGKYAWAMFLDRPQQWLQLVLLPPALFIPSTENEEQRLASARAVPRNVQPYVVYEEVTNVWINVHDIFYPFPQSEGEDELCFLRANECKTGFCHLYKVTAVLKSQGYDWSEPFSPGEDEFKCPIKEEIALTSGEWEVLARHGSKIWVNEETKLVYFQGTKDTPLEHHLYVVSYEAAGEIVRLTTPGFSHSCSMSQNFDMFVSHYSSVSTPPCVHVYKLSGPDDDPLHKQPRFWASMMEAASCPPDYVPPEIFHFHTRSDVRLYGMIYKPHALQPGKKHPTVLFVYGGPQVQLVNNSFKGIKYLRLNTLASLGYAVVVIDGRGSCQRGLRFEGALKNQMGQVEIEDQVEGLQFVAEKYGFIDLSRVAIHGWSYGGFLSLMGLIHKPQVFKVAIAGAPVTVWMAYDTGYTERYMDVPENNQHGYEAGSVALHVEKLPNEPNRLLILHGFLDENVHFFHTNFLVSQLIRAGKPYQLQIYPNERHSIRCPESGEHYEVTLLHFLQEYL

SMILES	clearance [1] [mL/min/kg]	bioavailability [2] [%]	IC50 (Dipeptidyl peptidase 9) [µM]	IC50 (Dipeptidyl peptidase 8) [µM]	further results
CN(C)C(=O)[C@@H](c1ccc(N(C)C(=O)c2ccc(F)cc2)cc1)[C@H](N)C(=O)N1CC[C@H](F)C1.O=C(O)C(F)(F)F	73	6	> 100	> 100	IC50 (Dipeptidyl peptidase 2): > 100 µM; IC50 [3]: > 90 µM
Cl.N[C@H](C(=O)N1CC[C@H](F)C1)C1CCC(NS(=O)(=O)c2ccc(F)cc2F)CC1 (some centres undefined)	24	–	–	–	–
C[C@@H](c1ccc(N(C)C(=O)c2ccc(F)cc2)cc1)[C@H](N)C(=O)N1CC[C@H](F)C1	–	–	> 100	> 100	–
Cc1ccc(C(=O)N(C)c2ccc([C@H](C(=O)N(C)C)[C@H](N)C(=O)N3CC[C@H](F)C3)cc2)cc1	–	–	> 100	> 100	IC50 (Dipeptidyl peptidase 2): > 100 µM
Cc1ccc(S(=O)(=O)N(C)c2ccc([C@H](C(=O)N(C)C)[C@H](N)C(=O)N3CC[C@H](F)C3)cc2)cc1	–	–	> 100	> 100	IC50 (Dipeptidyl peptidase 2): > 100 µM
CN(C)C(=O)[C@@H](c1ccc(NS(=O)(=O)c2ccccc2)cc1)[C@H](N)C(=O)N1CC[C@H](F)C1	–	–	> 100	> 100	–
CC(=O)Nc1ccc([C@H](C)[C@H](N)C(=O)N2CC[C@H](F)C2)cc1	–	–	> 100	–	–
CC(=O)N(C)c1ccc([C@H](C)[C@H](N)C(=O)N2CC[C@H](F)C2)cc1	–	–	> 100	> 100	–

Second part, led by results:

clearance [1] [mL/min/kg]	bioavailability [2] [%]	IC50 (Dipeptidyl peptidase 9) [µM]	IC50 (Dipeptidyl peptidase 8) [µM]	SMILES	further results
49	46	–	–	C[C@@H](C1CCC(N(C)C(=O)C2CC2)CC1)[C@H](N)C(=O)N1CC[C@H](F)C1.Cl (some centres undefined)	–
42	56	> 100	–	CC(=O)N(C)C1CCC([C@H](C)[C@H](N)C(=O)N2CC[C@H](F)C2)CC1.Cl (some centres undefined)	IC50 [3]: > 90 µM; clearance [4]: 4.4 mL/min/kg; bioavailability [5]: 83%; Activity (Mus musculus): Dose-dependent effect
–	–	> 100	> 100	CN(C)C(=O)[C@@H](C1CCC(NS(=O)(=O)c2ccc(F)cc2F)CC1)[C@H](N)C(=O)N1CC[C@H](F)C1 (some centres undefined)	–
18	3	> 100	> 100	CC(=O)N(C)C1CCC([C@H](C(=O)N(C)C)[C@H](N)C(=O)N2CC[C@H](F)C2)CC1.Cl (some centres undefined)	–
–	–	> 100	> 100	CN(C)C(=O)[C@@H](C1CCC(NS(=O)(=O)c2ccc(OC(F)(F)F)cc2)CC1)[C@H](N)C(=O)N1CC[C@H](F)C1 (some centres undefined)	–
–	–	> 100	–	CC(=O)Nc1ccc([C@H](C(=O)N(C)C)[C@H](N)C(=O)N2CC[C@H](F)C2)cc1	IC50 (Dipeptidyl peptidase 2): > 100 µM
40	72	–	–	C[C@@H](C1CCC(N(C)C(=O)c2cccc(F)c2)CC1)[C@H](N)C(=O)N1CC[C@H](F)C1.Cl (some centres undefined)	–
27	25	> 100	> 100	CN(C)C(=O)[C@@H](C1CCC(N(C)C(=O)c2cccc(F)c2)CC1)[C@H](N)C(=O)N1CC[C@H](F)C1.Cl (some centres undefined)	IC50 [3]: > 90 µM
–	–	> 100	> 100	CC(=O)N(C)c1ccc([C@H](C(=O)N(C)C)[C@H](N)C(=O)N2CC[C@H](F)C2)cc1	IC50 (Dipeptidyl peptidase 2): > 100 µM
